Experimental data reported in US9113629B2, “4-amino-6-(4-substituted-phenyl)-picolinates and 6-amino-2-(4-substituted-phenyl)-pyrimidine-4-carboxylates and their use as herbicides” (DOW AGROSCIENCES LLC, priority 2013, dated 2015).

Test system: Key Grass and Sedge Weeds as well as Grass Crops
Test: Post-emergent Test II herbicidal activity (Table 6)
Type: in vivo
Conditions: Triticum aestivum, post-emergence, 336 h, TRZSS (wheat), application rate 70 g ai/ha, read-out: Visual Growth Reduction (%) 14 Days After Application, TRZSS
In short: (§1)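 Greenhouse post-emergent assay: seedlings (first/second true leaf) in Metro-Mix 360 were sprayed at 187 L/ha at a top rate plus twofold dilutions down to 1/16×; solvent-blank controls were included. Percent visual injury was read at 14 d.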

Question: With `COC(=O)c1nc(-c2ccc(Br)cc2F)cc(N)c1Cl` [Compound 93] as the compound, how does the pest or weed control at 70 g/ha read?
Answer: Its pest or weed control at 70 g/ha is 45 to 59%.

Same assay, conditions: Triticum aestivum, post-emergence, 336 h, TRZSS (wheat), application rate 140 g ai/ha, read-out: Visual Growth Reduction (%) 14 Days After Application, TRZSS

Question: For `COC(=O)c1nc(-c2ccc(Br)cc2F)cc(N)c1Cl` [Compound 93], which pest or weed control at 140 g/ha is on record?
Answer: Its pest or weed control at 140 g/ha is 45 to 59%.

Same assay, conditions: post-emergence, 336 h, CYPES: yellow nutsedge (Cyperus esculentus), application rate 70 g ai/ha, read-out: Visual Growth Reduction (%) 14 Days After Application, CYPES

Question: Which pest or weed control at 70 g/ha does the source give for `COC(=O)c1nc(-c2ccc(Br)cc2F)cc(N)c1Cl` [Compound 93] here?
Answer: The pest or weed control at 70 g/ha was 95 to 100%.

Same assay, conditions: post-emergence, 336 h, CYPES: yellow nutsedge (Cyperus esculentus), application rate 140 g ai/ha, read-out: Visual Growth Reduction (%) 14 Days After Application, CYPES

Question: For `COC(=O)c1nc(-c2ccc(Br)cc2F)cc(N)c1Cl` [Compound 93], which pest or weed control at 140 g/ha is on record?
Answer: Its pest or weed control at 140 g/ha is 95 to 100%.

Same assay, conditions: post-emergence, 336 h, DIGSA: crabgrass (Digitaria sanguinalis), application rate 70 g ai/ha, read-out: Visual Growth Reduction (%) 14 Days After Application, DIGSA

Question: Which pest or weed control at 70 g/ha does the source give for `COC(=O)c1nc(-c2ccc(Br)cc2F)cc(N)c1Cl` [Compound 93] here?
Answer: Its pest or weed control at 70 g/ha is 75 to 84%.

Same assay, conditions: post-emergence, 336 h, DIGSA: crabgrass (Digitaria sanguinalis), application rate 140 g ai/ha, read-out: Visual Growth Reduction (%) 14 Days After Application, DIGSA

Question: Which pest or weed control at 140 g/ha does the source give for `COC(=O)c1nc(-c2ccc(Br)cc2F)cc(N)c1Cl` [Compound 93] here?
Answer: The pest or weed control at 140 g/ha was 95 to 100%.

Same assay, conditions: post-emergence, 336 h, ECHCG: barnyardgrass (Echinochloa crus-galli), application rate 70 g ai/ha, read-out: Visual Growth Reduction (%) 14 Days After Application, ECHCG

Question: For `COC(=O)c1nc(-c2ccc(Br)cc2F)cc(N)c1Cl` [Compound 93], which pest or weed control at 70 g/ha is on record?
Answer: The pest or weed control at 70 g/ha was 85 to 94%.

Same assay, conditions: post-emergence, 336 h, ECHCG: barnyardgrass (Echinochloa crus-galli), application rate 140 g ai/ha, read-out: Visual Growth Reduction (%) 14 Days After Application, ECHCG

Question: With `COC(=O)c1nc(-c2ccc(Br)cc2F)cc(N)c1Cl` [Compound 93] as the compound, how does the pest or weed control at 140 g/ha read?
Answer: The pest or weed control at 140 g/ha was 85 to 94%.

Same assay, conditions: post-emergence, 336 h, ORYSA: rice (Oryza sativa), application rate 70 g ai/ha, read-out: Visual Growth Reduction (%) 14 Days After Application, ORYSA

Question: Which pest or weed control at 70 g/ha does the source give for `COC(=O)c1nc(-c2ccc(Br)cc2F)cc(N)c1Cl` [Compound 93] here?
Answer: The pest or weed control at 70 g/ha was 0 to 29%.

Same assay, conditions: post-emergence, 336 h, ORYSA: rice (Oryza sativa), application rate 140 g ai/ha, read-out: Visual Growth Reduction (%) 14 Days After Application, ORYSA

Question: With `COC(=O)c1nc(-c2ccc(Br)cc2F)cc(N)c1Cl` [Compound 93] as the compound, how does the pest or weed control at 140 g/ha read?
Answer: Its pest or weed control at 140 g/ha is 0 to 29%.

Same assay, conditions: post-emergence, 336 h, SETFA: giant foxtail (Setaria faberi), application rate 70 g ai/ha, read-out: Visual Growth Reduction (%) 14 Days After Application, SETFA

Question: Which pest or weed control at 70 g/ha does the source give for `COC(=O)c1nc(-c2ccc(Br)cc2F)cc(N)c1Cl` [Compound 93] here?
Answer: The pest or weed control at 70 g/ha was 75 to 84%.

Same assay, conditions: post-emergence, 336 h, SETFA: giant foxtail (Setaria faberi), application rate 140 g ai/ha, read-out: Visual Growth Reduction (%) 14 Days After Application, SETFA

Question: With `COC(=O)c1nc(-c2ccc(Br)cc2F)cc(N)c1Cl` [Compound 93] as the compound, how does the pest or weed control at 140 g/ha read?
Answer: The pest or weed control at 140 g/ha was 75 to 84%.

Same assay, conditions: post-emergence, 336 h, SORVU: grain sorghum (Sorghum vulgare), application rate 70 g ai/ha, read-out: Visual Growth Reduction (%) 14 Days After Application, SORVU

Question: With `COC(=O)c1nc(-c2ccc(Br)cc2F)cc(N)c1Cl` [Compound 93] as the compound, how does the pest or weed control at 70 g/ha read?
Answer: The pest or weed control at 70 g/ha was 85 to 94%.

Same assay, conditions: post-emergence, 336 h, SORVU: grain sorghum (Sorghum vulgare), application rate 140 g ai/ha, read-out: Visual Growth Reduction (%) 14 Days After Application, SORVU

Question: Which pest or weed control at 140 g/ha does the source give for `COC(=O)c1nc(-c2ccc(Br)cc2F)cc(N)c1Cl` [Compound 93] here?
Answer: Its pest or weed control at 140 g/ha is 95 to 100%.

Same assay, conditions: post-emergence, 336 h, ZEAMX: maize, corn (Zea mays), application rate 70 g ai/ha, read-out: Visual Growth Reduction (%) 14 Days After Application, ZEAMX

Question: With `COC(=O)c1nc(-c2ccc(Br)cc2F)cc(N)c1Cl` [Compound 93] as the compound, how does the pest or weed control at 70 g/ha read?
Answer: The pest or weed control at 70 g/ha was 60 to 74%.

Same assay, conditions: post-emergence, 336 h, ZEAMX: maize, corn (Zea mays), application rate 140 g ai/ha, read-out: Visual Growth Reduction (%) 14 Days After Application, ZEAMX

Question: With `COC(=O)c1nc(-c2ccc(Br)cc2F)cc(N)c1Cl` [Compound 93] as the compound, how does the pest or weed control at 140 g/ha read?
Answer: Its pest or weed control at 140 g/ha is 75 to 84%.

Test system: not given
Test: not given
Conditions: not given

Question: With `COC(=O)c1nc(-c2ccc(Br)cc2F)cc(N)c1Cl` [Compound 93] as the compound, how does the melting point read?
Answer: Its melting point is 98.9 to 101.6 °C.

Test system: Key Broadleaf Weed and Crop Species
Test: Post-emergent Test II herbicidal activity (Table 5)
Type: in vivo
Conditions: post-emergence, 336 h; ABUTH: velvetleaf (Abutilon theophrasti); 70 g ai/ha; post-emergent; 14 days after application; read-out: Visual Growth Reduction (%) 14 Days After Application ABUTH
In short: as §1

Question: With `COC(=O)c1nc(-c2ccc(Br)cc2F)cc(N)c1Cl` [Compound 93] as the compound, how does the pest or weed control at 70 g/ha read?
Answer: Its pest or weed control at 70 g/ha is 95 to 100%.

Same assay, conditions: post-emergence, 336 h; ABUTH: velvetleaf (Abutilon theophrasti); 140 g ai/ha; post-emergent; 14 days after application; read-out: Visual Growth Reduction (%) 14 Days After Application ABUTH

Question: With `COC(=O)c1nc(-c2ccc(Br)cc2F)cc(N)c1Cl` [Compound 93] as the compound, how does the pest or weed control at 140 g/ha read?
Answer: Its pest or weed control at 140 g/ha is 95 to 100%.

Same assay, conditions: post-emergence, 336 h; AMARE: redroot pigweed (Amaranthus retroflexus); 70 g ai/ha; post-emergent; 14 days after application; read-out: Visual Growth Reduction (%) 14 Days After Application AMARE

Question: For `COC(=O)c1nc(-c2ccc(Br)cc2F)cc(N)c1Cl` [Compound 93], which pest or weed control at 70 g/ha is on record?
Answer: The pest or weed control at 70 g/ha was 95 to 100%.

Same assay, conditions: post-emergence, 336 h; AMARE: redroot pigweed (Amaranthus retroflexus); 140 g ai/ha; post-emergent; 14 days after application; read-out: Visual Growth Reduction (%) 14 Days After Application AMARE

Question: For `COC(=O)c1nc(-c2ccc(Br)cc2F)cc(N)c1Cl` [Compound 93], which pest or weed control at 140 g/ha is on record?
Answer: Its pest or weed control at 140 g/ha is 95 to 100%.

Same assay, conditions: post-emergence, 336 h; BRSNN: oilseed-rape, canola (Brassica napus); 70 g ai/ha; post-emergent; 14 days after application; read-out: Visual Growth Reduction (%) 14 Days After Application BRSNN

Question: For `COC(=O)c1nc(-c2ccc(Br)cc2F)cc(N)c1Cl` [Compound 93], which pest or weed control at 70 g/ha is on record?
Answer: Its pest or weed control at 70 g/ha is 0 to 29%.

Same assay, conditions: post-emergence, 336 h; BRSNN: oilseed-rape, canola (Brassica napus); 140 g ai/ha; post-emergent; 14 days after application; read-out: Visual Growth Reduction (%) 14 Days After Application BRSNN

Question: With `COC(=O)c1nc(-c2ccc(Br)cc2F)cc(N)c1Cl` [Compound 93] as the compound, how does the pest or weed control at 140 g/ha read?
Answer: The pest or weed control at 140 g/ha was 60 to 74%.

Same assay, conditions: post-emergence, 336 h; CHEAL: lambsquarters (Chenopodium album); 70 g ai/ha; post-emergent; 14 days after application; read-out: Visual Growth Reduction (%) 14 Days After Application CHEAL

Question: Which pest or weed control at 70 g/ha does the source give for `COC(=O)c1nc(-c2ccc(Br)cc2F)cc(N)c1Cl` [Compound 93] here?
Answer: Its pest or weed control at 70 g/ha is 85 to 94%.

Same assay, conditions: post-emergence, 336 h; CHEAL: lambsquarters (Chenopodium album); 140 g ai/ha; post-emergent; 14 days after application; read-out: Visual Growth Reduction (%) 14 Days After Application CHEAL

Question: With `COC(=O)c1nc(-c2ccc(Br)cc2F)cc(N)c1Cl` [Compound 93] as the compound, how does the pest or weed control at 140 g/ha read?
Answer: The pest or weed control at 140 g/ha was 95 to 100%.

Same assay, conditions: post-emergence, 336 h; EPHHL: wild poinsettia (Euphorbia heterophylla); 70 g ai/ha; post-emergent; 14 days after application; read-out: Visual Growth Reduction (%) 14 Days After Application EPHHL

Question: Which pest or weed control at 70 g/ha does the source give for `COC(=O)c1nc(-c2ccc(Br)cc2F)cc(N)c1Cl` [Compound 93] here?
Answer: Its pest or weed control at 70 g/ha is 95 to 100%.

Same assay, conditions: post-emergence, 336 h; EPHHL: wild poinsettia (Euphorbia heterophylla); 140 g ai/ha; post-emergent; 14 days after application; read-out: Visual Growth Reduction (%) 14 Days After Application EPHHL

Question: Which pest or weed control at 140 g/ha does the source give for `COC(=O)c1nc(-c2ccc(Br)cc2F)cc(N)c1Cl` [Compound 93] here?
Answer: Its pest or weed control at 140 g/ha is 95 to 100%.

Same assay, conditions: post-emergence, 336 h; HELAN: sunflower (Helianthus annuus); 70 g ai/ha; post-emergent; 14 days after application; read-out: Visual Growth Reduction (%) 14 Days After Application HELAN

Question: With `COC(=O)c1nc(-c2ccc(Br)cc2F)cc(N)c1Cl` [Compound 93] as the compound, how does the pest or weed control at 70 g/ha read?
Answer: The pest or weed control at 70 g/ha was 85 to 94%.

Same assay, conditions: post-emergence, 336 h; HELAN: sunflower (Helianthus annuus); 140 g ai/ha; post-emergent; 14 days after application; read-out: Visual Growth Reduction (%) 14 Days After Application HELAN

Question: With `COC(=O)c1nc(-c2ccc(Br)cc2F)cc(N)c1Cl` [Compound 93] as the compound, how does the pest or weed control at 140 g/ha read?
Answer: Its pest or weed control at 140 g/ha is 85 to 94%.

Same assay, conditions: post-emergence, 336 h; VIOTR: wild pansy (Viola tricolor); 70 g ai/ha; post-emergent; 14 days after application; read-out: Visual Growth Reduction (%) 14 Days After Application VIOTR

Question: Which pest or weed control at 70 g/ha does the source give for `COC(=O)c1nc(-c2ccc(Br)cc2F)cc(N)c1Cl` [Compound 93] here?
Answer: Its pest or weed control at 70 g/ha is 30 to 44%.
